Data reported in US12252493B2, “Imidazo[1,2-c]pyrimidine derivatives as PRC2 inhibitors for treating cancer” (Mirati Therapeutics, Inc., priority 2019, dated 2025).
Where two headings read alike, the source gives them in different places.

Key:
[1] = target: purified human, His-tagged PRC2 complex (Homo sapiens (Human), UniProt O75530); assay: Hot Spot HMT assay of PRC2 enzymatic activity (tritiated methyl transfer from SAM to core histone); assay type: biochemical; details: 10 nM purified PRC2 complex, 0.05 mg/ml core histone H3, 1 uM 3H-SAM, 1 hr at 30° C.; read-out: IC50, Inhibition of PRC2-mediated Enzymatic Activity
Chain of purified human, His-tagged PRC2 complex (Q15910 whole entry): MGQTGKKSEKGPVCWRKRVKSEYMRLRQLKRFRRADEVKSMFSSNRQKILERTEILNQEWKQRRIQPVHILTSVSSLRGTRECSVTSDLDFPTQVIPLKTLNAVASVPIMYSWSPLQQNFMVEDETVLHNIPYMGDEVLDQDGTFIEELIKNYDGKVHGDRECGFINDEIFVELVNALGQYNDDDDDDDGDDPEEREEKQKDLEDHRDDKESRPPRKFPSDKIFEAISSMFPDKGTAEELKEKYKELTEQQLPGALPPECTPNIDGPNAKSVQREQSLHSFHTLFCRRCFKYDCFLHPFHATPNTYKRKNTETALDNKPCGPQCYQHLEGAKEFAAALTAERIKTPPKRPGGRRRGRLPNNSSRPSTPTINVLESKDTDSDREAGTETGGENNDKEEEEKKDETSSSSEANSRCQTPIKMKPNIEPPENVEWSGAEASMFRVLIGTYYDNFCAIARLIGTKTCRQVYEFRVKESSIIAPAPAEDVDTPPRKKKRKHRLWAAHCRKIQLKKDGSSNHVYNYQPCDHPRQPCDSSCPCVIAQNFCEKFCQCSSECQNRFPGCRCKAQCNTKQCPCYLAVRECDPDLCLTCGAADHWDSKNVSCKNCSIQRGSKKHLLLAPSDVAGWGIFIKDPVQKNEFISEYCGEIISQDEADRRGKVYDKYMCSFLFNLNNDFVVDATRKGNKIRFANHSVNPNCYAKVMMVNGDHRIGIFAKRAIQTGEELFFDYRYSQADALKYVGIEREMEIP
Chain of purified human, His-tagged PRC2 complex (O75530 whole entry): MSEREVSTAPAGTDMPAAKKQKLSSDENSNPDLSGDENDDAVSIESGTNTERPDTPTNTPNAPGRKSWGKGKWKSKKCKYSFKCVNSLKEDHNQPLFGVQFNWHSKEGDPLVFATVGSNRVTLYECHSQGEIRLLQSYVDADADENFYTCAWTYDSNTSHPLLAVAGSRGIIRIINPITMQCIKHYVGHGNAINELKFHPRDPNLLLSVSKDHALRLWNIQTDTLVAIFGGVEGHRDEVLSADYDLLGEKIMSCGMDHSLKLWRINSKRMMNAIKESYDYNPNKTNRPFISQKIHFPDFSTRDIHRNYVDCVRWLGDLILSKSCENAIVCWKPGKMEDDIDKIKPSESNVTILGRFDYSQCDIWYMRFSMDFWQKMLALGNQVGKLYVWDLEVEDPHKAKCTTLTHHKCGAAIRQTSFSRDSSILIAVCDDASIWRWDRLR
Chain of purified human, His-tagged PRC2 complex (Q15022 whole entry partner): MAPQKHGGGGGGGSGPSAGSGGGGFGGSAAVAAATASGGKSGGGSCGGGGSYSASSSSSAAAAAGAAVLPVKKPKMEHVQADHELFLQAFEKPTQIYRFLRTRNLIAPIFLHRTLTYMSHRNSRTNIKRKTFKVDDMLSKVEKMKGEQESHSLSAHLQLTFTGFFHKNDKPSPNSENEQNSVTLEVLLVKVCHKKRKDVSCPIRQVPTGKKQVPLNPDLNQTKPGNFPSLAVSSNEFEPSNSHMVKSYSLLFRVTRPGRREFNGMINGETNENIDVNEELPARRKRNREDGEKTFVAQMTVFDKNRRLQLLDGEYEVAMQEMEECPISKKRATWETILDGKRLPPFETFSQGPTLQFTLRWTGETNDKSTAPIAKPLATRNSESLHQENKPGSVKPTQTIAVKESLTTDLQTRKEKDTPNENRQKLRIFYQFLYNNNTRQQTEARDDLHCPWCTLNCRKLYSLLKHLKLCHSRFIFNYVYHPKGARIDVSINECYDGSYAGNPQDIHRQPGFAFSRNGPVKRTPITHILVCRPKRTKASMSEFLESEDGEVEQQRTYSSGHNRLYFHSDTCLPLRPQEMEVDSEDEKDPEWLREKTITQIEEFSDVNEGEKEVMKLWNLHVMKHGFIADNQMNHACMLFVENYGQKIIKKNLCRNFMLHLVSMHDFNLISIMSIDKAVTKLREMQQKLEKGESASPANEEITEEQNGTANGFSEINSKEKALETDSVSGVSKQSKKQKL
Chain of purified human, His-tagged PRC2 complex (Q6ZN18 whole entry partner): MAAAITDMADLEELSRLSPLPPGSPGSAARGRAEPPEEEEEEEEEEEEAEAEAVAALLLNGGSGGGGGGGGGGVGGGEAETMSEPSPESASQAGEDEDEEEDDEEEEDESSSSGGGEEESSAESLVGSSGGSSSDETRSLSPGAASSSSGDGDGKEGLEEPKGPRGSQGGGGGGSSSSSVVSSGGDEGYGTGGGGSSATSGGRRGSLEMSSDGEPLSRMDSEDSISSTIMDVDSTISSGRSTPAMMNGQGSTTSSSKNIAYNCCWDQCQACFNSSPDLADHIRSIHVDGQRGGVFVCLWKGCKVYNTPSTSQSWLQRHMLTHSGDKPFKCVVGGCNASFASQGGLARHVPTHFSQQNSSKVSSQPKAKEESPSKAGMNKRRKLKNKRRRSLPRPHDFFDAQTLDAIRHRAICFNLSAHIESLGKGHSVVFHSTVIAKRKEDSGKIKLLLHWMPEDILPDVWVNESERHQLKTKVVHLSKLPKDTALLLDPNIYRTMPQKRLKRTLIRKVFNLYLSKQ
Chain of purified human, His-tagged PRC2 complex (Q09028 whole entry partner): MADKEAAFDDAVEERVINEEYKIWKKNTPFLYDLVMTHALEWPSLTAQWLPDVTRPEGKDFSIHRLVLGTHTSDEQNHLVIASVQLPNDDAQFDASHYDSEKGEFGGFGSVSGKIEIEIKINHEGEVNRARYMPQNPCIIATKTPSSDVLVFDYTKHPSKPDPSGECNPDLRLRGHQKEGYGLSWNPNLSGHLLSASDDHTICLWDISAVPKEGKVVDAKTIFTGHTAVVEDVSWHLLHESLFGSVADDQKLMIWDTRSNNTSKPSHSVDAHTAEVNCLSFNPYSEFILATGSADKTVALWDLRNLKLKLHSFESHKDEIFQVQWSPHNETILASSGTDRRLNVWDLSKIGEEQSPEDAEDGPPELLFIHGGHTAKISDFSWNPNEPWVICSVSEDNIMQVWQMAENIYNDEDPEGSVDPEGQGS
Procedure: Ten-point dose-response curves for compounds of the present invention were determined using a Hot Spot HMT assay (Reaction Biology Corp; see Horiuchi et al., Assay Drug Dev Technol. (2013) 4: 227-236 doi: 10.1089/adt.2012.480). The assay uses purified human, His-tagged PRC2 complex, including N-terminal His-tagged EZH2 enzyme, N-terminal Flag-tagged embryonic ectoderm development protein (EED), N-terminal His-tagged suppressor of zeste 12 (SUZ12), N-terminal His-tagged AEBP2, and N-terminal His-tagged RbAp48. In this assay, the transfer of the tritiated methyl group from radiolabeled S-adenosyl methionine (SAM) to purified core histone protein by EZH2 is quantitated after filtration to determine the activity of the core PRC2 complex in the presence and absence of compound.
Briefly, compounds of the present invention were solubilized in DMSO and a series of 10, three-fold serial dilutions were made for each compound in 15% DMSO. The initial starting concentration for the serial dilutions of each compound was 1.0 μM. Control samples lacking compound, EZH2 enzyme or various reaction components also were prepared and processed in parallel with compound test samples. SAH (S-(5-adenosyl)-L-homocysteine) was used as a positive control for assay validation.
An aliquot of each serial dilution of test compound was added to deep 384 well plate using Acoustic Technology instrument (Echo 550, LabCyte) containing reaction buffer (50 mM Tris-HCl (pH 8.)), 0.01% Brij35, 1 mM EDTA, 1 mM DTT, 1 mM PMSF and 1% DMSO), 10 nM purified PRC2 complex and 0.05 mg/ml core histone H3 in a 5 μl volume. The reaction was mixed gently and then pre-incubated for 20 min at 30° C. The enzymatic reaction was initiated by adding 1 uM S-Adenosyl-L-[methyl ^3H]methionine and incubated for 1 hr at 30° C. After 1 hr, the reaction product was detected using a filter binding method and the amount of tritiated H3 core histone was quantitated using a scintillation counter. The IC50 value for each compound was determined from each 10-point dose-response curve using GraphPad Prism software and the results for exemplary compounds of Formula (I) are shown in Table 5. Key: A=≤250 nM; B=>250 nM—≤500 nM; and C=>500 nM—≤2 μM.

[2] = test system: PRC2-mediated histone H3 methylation (H3 Lys27 trimethylation) in Pfeiffer cells expressing mutant EZH2 (A677G); assay: Tri-Methyl Histone H3 (Lys 27) sandwich ELISA in Pfeiffer cells; assay type: cell-based, human; details: Pfeiffer cells, 96 hours incubation, ELISA, read-out: IC50, Inhibition of EZH2-mediated Histone H3 Trimethylation
From the text: The Pfeiffer cell line was established from a […] from a patient having metastatic diffuse large B-cell lymphoma (DLBCL). This cell line expresses a mutant form of the EZH2 enzyme (A677G) that results in enhanced EZH2 activity leading to increased methylation of histone H3 Lys27. Increased trimethylation of histone H3 Lys27 is believed to be implicated in tumorgenesis and poor clinical prognosis in lymphomas (McCabe et al., (2012) Nature 492:108-112).
Inhibition of PRC2-mediated histone H3 methylation by compounds of Formula (I) was measured by ELISA using a Tri-Methyl Histone H3 (Lys 27) Sandwich ELISA Kit (Cell Signaling Tech #7866C) in accordance with the manufacturer's instructions. Briefly, Pfeiffer cells were cultured in RPMI medium supplemented with 10% fetal bovine serum and 1% penicillin and 1% streptomycin in 96 well culture plates at 37° C. to a density of 8000 cells/90 μl/well and the cells were harvested. A series of 3-fold serial dilutions of each test compound of Formula (I) were prepared in RPMI medium and added to the cells at final concentrations ranging from 1 μM to 0.15 nM. The plates were incubated at 37° C. for 96 hours.
After incubation, the cells were pelleted by centrifugation in a pre-cooled 4° C. rotor at 1,100 rpm for 10 min and the supernatant was removed by aspiration. The cell pellet was resuspended in 55 μl of Lysis Buffer (0.4M HCl) and incubated on ice with periodic shaking for 30 minutes. The lysed cells were subjected to centrifugation at 4,200 rpm for 10 min at 4° C. and the supernatant containing acid-soluble proteins was collected and the remainder discarded. The acid-soluble proteins were brought to a neutral pH by the addition of 20 μl of Neutralization Buffer (1 M Sodium phosphate, dibasic (pH 12.5), 2.5 mM DTT and 1 mM PMSF) and the neutralized lysates were analyzed by ELISA.
A 65 μl aliquot of each cell lysate was added to a well of a microwell strip, the microwells were sealed using tape and incubated either at 37° C. for two hours or at 4° C. overnight. After incubation, the tape was removed at the microwells were washed four times using 200 μl of 1× Wash Buffer. To each washed microwell, a 100 μl aliquot of an anti-trimethyl histone H3 Lys27 Detection Antibody solution was added and the microwells were incubated at 37° C. for one hour. The Detection Antibody solution was removed by aspiration and the wells were washed four times each using 200 μl of 1× Wash Buffer.
A 100 μl aliquot of an HRP-linked secondary antibody was added to each well, the wells were sealed with tape and incubated at 37° C. for 30 min. The HRP-linked secondary antibody solution was removed by aspiration and the wells were washed four times using 200 μl of 1× Wash Buffer. A 100 μl aliquot of a TMB substrate was added to each well, the wells were sealed with tape and incubated at 37° C. for 10 min or 25° C. for 30 min. The reaction was stopped by the addition of 100 μl aliquot of a STOP solution and the plate was shaken briefly. The degree of histone H3 trimethylation was determined using a spectrophotometric readout by measuring the absorbance at 450 nm and then calculating the amount of trimethylated histone H3. Key: A=≤250 nM; B=>250 nM-≤500 nM; and C=>500 nM-≤5 μM.

[3] = test system: Karpas 422 cells expressing mutant EZH2 (Y641N); assay: Karpas 422 cell viability (Cell Titre Glo) assay; assay type: cell-based, human; details: CTG viability, time point (Day 4, Day 7 or Day 11) not given, read-out: IC50, Inhibiting Proliferation of Cells Expressing an Activating Mutant Form of EZH2
Procedure: Karpas 422 cell line is a human B cell non-Hodgkin's lymphoma cell line established from a patient having DLBCL. This EZH2 heterozygotic cell line expresses a mutant form of EZH2 enzyme (Y641N) that increases histone H3 methylation and this mutation has been implicated in the tumorgenesis of lymphomas, such as DLBCL.
Karpas 422 cells (PHE cat no., 06101702) were cultured in RPMI medium supplemented with 20% fetal bovine serum and 1% penicillin/1% streptomycin and plated at a density of 1000 cells/90 μl/well in 96 well white assay plates. A dose response curve for compounds of the present invention was determined by adding a 10 μl aliquot of stock solutions of varying concentrations of compounds to the same medium in each well, over a concentration range of 10 μM using 3-fold dilutions to a final concentration of 1.5 nM. The plates were incubated at 37° C. for predetermined time periods, Day 4, Day 7, or Day 11, and the viability of the cells was measured using a CTG assay kit (Cell Titre Glo; Promega cat. no G7573) on Day 4 and Day 7 in accordance with the manufacturer's instructions.
For the viability assay for the Day 11 plates, the plates were subjected to centrifugation at 1100 rpm for five minutes on Day 7 and the supernatant was removed by aspiration. The cells were resuspended in 90 μl aliquot of the appropriate growth medium lacking the compound followed by addition of 10 μl of a 10× stock of the same compound at the same concentration. The viability of the Day 11 cells was measured using the CTG assay kit described above in accordance with the manufacturer's instructions. The IC50 values for each compound at each predetermined time point were calculated using Graph pad PRISM software and the results are shown in Table 7. Key: A=≤250 nM; B=>250 nM-≤500 nM; C=>500 nM-≤5 μM and N.D.=not determined.

| Compound | IC50 [1] [nM] | IC50 [2] [nM] | IC50 [3] [nM] | IC50 ([2]; Homo sapiens) [nM] | IC50 ([3]; Homo sapiens) [nM] |
| --- | --- | --- | --- | --- | --- |
| Cc1cc(-c2cnc(NCc3c(F)ccc4c3CCO4)n3cc(C(C)N)nc23)n(C)n1 (single isomer, unassigned) [Example 12, 2-(1-aminoethyl)-8-(1,3-dimethyl-1H-pyrazol-5-yl)-N-((5-fluoro-2,3-dihydrobenzofuran-4-yl)methyl)imidazo[1,2-c]pyrimidin-5-amine] | < 250 | < 250 | < 250 | – | – |
| Cc1cc(-c2cnc(NCc3c(F)ccc4c3CCO4)n3cc(-c4cnco4)nc23)n(C)n1 [Example 45, 8-(1,3-dimethyl-1H-pyrazol-5-yl)-N-((5-fluoro-2,3-dihydrobenzofuran-4-yl)methyl)-2-(oxazol-5-yl)imidazo[1,2-c]pyrimidin-5-amine] | < 250 | – | – | 250 to 500 | < 250 |
| Cc1c(F)cccc1-c1cnc(NCc2c(F)ccc3c2CCO3)n2cc(CN)nc12 [Example 17, 2-(aminomethyl)-N-((5-fluoro-2,3-dihydrobenzofuran-4-yl)methyl)-8-(3-fluoro-2-methylphenyl)imidazo[1,2-c]pyrimidin-5-amine] | 500 to 2000 | – | – | 500 to 5000 | 500 to 5000 |
| NCc1cn2c(NCc3c(F)ccc4c3CCO4)ncc(-c3cc(F)cc(F)c3)c2n1 [Example 16, 2-(aminomethyl)-8-(3,5-difluorophenyl)-N-((5-fluoro-2,3-dihydrobenzofuran-4-yl)methyl)imidazo[1,2-c]pyrimidin-5-amine] | 500 to 2000 | – | – | 500 to 5000 | 500 to 5000 |
| Cc1cccc(-c2cnc(NCc3c(F)ccc4c3CCO4)n3cc(CN)nc23)c1 [Example 21, 2-(aminomethyl)-N-((5-fluoro-2,3-dihydrobenzofuran-4-yl)methyl)-8-(m-tolyl)imidazo[1,2-c]pyrimidin-5-amine] | 500 to 2000 | – | – | 500 to 5000 | 500 to 5000 |
| Cc1cc(-c2cnc(NCc3c(F)ccc4occc34)n3cc(CN)nc23)n(C)n1 [Example 24] | 500 to 2000 | – | – | 250 to 500 | 250 to 500 |
| Cn1nc(C(F)(F)F)cc1-c1cnc(NCc2c(F)ccc3c2CCO3)n2cc(CN)nc12 [Example 15, 2-(aminomethyl)-N-((5-fluoro-2,3-dihydrobenzofuran-4-yl)methyl)-8-(1-methyl-3-(trifluoromethyl)-1H-pyrazol-5-yl)imidazo[1,2-c]pyrimidin-5-amine] | 250 to 500 | – | – | < 250 | < 250 |
| Cc1cc(-c2cnc(NCc3c(F)ccc4c3CCO4)n3cc(C(C)O)nc23)n(C)n1 (stereo not drawn) [Example 7, 1-(8-(1,3-dimethyl-1H-pyrazol-5-yl)-5-(((5-fluoro-2,3-dihydrobenzofuran-4-yl)methyl)amino)imidazo[1,2-c]pyrimidin-2-yl)ethan-1-ol] | < 250 | – | – | < 250 | 500 to 5000 |
| Cc1cc(-c2cnc(NCc3c(F)ccc4c3CCO4)n3cc(-c4nnco4)nc23)n(C)n1 [Example 44, 8-(1,3-dimethyl-1H-pyrazol-5-yl)-N-((5-fluoro-2,3-dihydrobenzofuran-4-yl)methyl)-2-(1,3,4-oxadiazol-2-yl)imidazo[1,2-c]pyrimidin-5-amine] | < 250 | – | – | < 250 | < 250 |
| Cc1ncccc1-c1cnc(NCc2c(F)ccc3c2CCO3)n2cc(CN)nc12 [Example 19, 2-(aminomethyl)-N-((5-fluoro-2,3-dihydrobenzofuran-4-yl)methyl)-8-(2-methylpyridin-3-yl)imidazo[1,2-c]pyrimidin-5-amine] | < 250 | – | – | 250 to 500 | < 250 |
| Cc1cc(-c2cnc(NCc3c(F)ccc4c3CCO4)n3cc(CNC4CCC4)nc23)n(C)n1 [Example 30, 2-((cyclobutylamino)methyl)-8-(1,3-dimethyl-1H-pyrazol-5-yl)-N-((5-fluoro-2,3-dihydrobenzofuran-4-yl)methyl)imidazo[1,2-c]pyrimidin-5-amine] | 500 to 2000 | – | – | 250 to 500 | < 250 |
| Cc1cc(S(C)(=O)=O)ccc1-c1cnc(NCc2c(F)ccc3c2CCO3)n2cc(CN)nc12 [Example 13, 2-(aminomethyl)-N-((5-fluoro-2,3-dihydrobenzofuran-4-yl)methyl)-8-(2-methyl-4-(methylsulfonyl)phenyl)imidazo[1,2-c]pyrimidin-5-amine] | < 250 | – | – | < 250 | < 250 |
